# Laboratory results taken from patent US12275731B2, “Azaindole inhibitors of wild-type and mutant forms of LRRK2” (DANA-FARBER CANCER INSTITUTE, INC., priority 2018, dated 2025).
# What was measured:
# Test in all cases: KinomeScan profiling
# Assay type in all cases: binding
# [1] = target: T1, AURKA (Homo sapiens, UniProt O14965); conditions: read-out: % control
# T1 construct: purchased KinomeScan®
# T1 sequence (O14965 1-403): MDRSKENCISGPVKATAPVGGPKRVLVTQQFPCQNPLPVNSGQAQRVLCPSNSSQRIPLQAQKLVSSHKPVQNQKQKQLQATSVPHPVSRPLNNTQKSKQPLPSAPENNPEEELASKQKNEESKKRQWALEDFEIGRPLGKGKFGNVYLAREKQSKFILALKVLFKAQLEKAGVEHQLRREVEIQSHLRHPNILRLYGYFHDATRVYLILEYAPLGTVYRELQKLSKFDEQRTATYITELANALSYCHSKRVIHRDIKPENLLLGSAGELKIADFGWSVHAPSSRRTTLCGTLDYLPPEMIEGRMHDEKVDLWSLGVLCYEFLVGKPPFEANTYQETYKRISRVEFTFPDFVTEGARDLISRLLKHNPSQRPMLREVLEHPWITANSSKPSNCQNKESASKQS
# How it was run: (§1)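 First, compounds in DMSO are added at 1 μM to each of 468 kinase assays. Next, RLU signals are normalised between positive control (0%) and DMSO (100%). Finally, kinases under 35% are flagged active.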
# [2] = target: T2, SGK (Homo sapiens, UniProt O00141); conditions: read-out: % control
# T2 construct: purchased KinomeScan® (panel service)
# T2 sequence (O00141 1-431): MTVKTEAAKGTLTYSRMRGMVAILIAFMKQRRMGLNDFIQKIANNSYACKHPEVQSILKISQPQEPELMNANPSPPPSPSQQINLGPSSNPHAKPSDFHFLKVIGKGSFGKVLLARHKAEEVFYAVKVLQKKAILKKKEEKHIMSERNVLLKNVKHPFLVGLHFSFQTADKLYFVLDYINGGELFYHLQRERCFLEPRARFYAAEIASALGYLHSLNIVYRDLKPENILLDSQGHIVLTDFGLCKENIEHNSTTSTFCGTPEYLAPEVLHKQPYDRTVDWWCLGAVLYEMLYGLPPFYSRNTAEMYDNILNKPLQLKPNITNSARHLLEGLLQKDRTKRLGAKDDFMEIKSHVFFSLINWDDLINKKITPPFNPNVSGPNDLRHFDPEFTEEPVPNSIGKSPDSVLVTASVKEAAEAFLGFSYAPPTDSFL
# How it was run: as §1
# [3] = target: T3, KIT(V559D, T670I) (Homo sapiens, UniProt P10721, T670I/V559D); conditions: read-out: % control
# T3 construct: purchased KinomeScan®
# T3 sequence (P10721 26-976 V559D/T670I): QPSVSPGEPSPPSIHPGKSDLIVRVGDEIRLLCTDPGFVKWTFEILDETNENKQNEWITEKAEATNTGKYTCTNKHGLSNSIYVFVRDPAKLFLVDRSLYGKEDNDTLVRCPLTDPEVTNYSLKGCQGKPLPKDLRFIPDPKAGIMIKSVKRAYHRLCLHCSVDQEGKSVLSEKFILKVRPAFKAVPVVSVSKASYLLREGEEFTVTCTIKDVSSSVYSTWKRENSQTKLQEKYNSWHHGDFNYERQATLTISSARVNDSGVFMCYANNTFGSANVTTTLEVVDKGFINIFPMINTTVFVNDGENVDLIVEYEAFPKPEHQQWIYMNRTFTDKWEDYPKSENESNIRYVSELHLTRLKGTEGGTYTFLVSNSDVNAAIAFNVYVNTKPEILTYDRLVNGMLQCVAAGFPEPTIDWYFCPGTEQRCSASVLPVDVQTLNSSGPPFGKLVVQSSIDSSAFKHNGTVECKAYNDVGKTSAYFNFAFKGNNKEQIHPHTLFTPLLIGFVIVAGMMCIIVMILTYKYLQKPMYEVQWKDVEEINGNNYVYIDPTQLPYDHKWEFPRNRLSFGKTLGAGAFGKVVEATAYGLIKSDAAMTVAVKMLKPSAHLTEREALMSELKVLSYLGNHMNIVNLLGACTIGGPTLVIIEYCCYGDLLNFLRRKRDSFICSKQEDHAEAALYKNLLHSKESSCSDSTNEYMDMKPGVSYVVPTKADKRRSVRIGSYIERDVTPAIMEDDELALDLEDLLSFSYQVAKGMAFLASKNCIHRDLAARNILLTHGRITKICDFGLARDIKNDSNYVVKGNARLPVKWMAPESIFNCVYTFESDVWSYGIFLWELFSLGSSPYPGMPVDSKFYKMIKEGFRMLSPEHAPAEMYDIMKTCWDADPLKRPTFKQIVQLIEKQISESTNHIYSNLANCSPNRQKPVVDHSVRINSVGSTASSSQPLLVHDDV
# How it was run: as §1
# [4] = target: T4, PKMYT1 (Homo sapiens, UniProt Q99640); conditions: PKMYT1, 1 μM; read-out: % control
# T4 sequence (Q99640 1-499): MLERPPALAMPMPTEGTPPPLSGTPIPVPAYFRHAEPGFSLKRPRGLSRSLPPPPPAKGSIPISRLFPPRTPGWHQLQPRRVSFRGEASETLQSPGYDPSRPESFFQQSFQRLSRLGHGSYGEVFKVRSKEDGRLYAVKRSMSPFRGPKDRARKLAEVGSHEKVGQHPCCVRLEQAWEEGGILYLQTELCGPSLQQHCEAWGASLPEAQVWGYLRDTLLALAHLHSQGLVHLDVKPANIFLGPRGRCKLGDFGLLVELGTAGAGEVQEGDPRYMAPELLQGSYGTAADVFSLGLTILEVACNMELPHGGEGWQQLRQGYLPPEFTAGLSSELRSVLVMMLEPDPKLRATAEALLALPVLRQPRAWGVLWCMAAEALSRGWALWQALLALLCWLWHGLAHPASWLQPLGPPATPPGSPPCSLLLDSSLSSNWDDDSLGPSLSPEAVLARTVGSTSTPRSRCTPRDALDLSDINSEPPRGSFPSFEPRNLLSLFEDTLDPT
# How it was run: as §1
# [5] = target: MKNK2 (Homo sapiens, UniProt Q9HBH9); conditions: MKNK2, 1 μM; read-out: % control
# MKNK2, sequence (Q9HBH9 whole entry): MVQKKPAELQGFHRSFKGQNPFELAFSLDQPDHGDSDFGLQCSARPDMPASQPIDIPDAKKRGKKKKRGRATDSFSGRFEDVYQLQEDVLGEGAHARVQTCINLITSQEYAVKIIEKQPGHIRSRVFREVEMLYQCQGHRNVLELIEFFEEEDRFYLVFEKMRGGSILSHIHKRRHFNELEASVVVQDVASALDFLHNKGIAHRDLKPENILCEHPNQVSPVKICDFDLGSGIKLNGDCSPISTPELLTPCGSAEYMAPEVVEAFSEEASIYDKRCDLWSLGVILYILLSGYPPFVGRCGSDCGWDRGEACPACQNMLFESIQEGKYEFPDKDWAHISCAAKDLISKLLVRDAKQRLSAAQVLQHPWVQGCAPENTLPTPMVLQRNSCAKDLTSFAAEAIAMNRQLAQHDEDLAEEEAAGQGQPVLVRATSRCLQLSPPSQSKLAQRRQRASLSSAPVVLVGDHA
# How it was run: as §1
# [6] = target: VEGFR2 (Homo sapiens, UniProt P35968); conditions: VEGFR2, 1 μM; read-out: % control
# How it was run: as §1
# [7] = target: LOK (Homo sapiens, UniProt O94804); conditions: read-out: % control
# LOK, sequence (O94804 whole entry): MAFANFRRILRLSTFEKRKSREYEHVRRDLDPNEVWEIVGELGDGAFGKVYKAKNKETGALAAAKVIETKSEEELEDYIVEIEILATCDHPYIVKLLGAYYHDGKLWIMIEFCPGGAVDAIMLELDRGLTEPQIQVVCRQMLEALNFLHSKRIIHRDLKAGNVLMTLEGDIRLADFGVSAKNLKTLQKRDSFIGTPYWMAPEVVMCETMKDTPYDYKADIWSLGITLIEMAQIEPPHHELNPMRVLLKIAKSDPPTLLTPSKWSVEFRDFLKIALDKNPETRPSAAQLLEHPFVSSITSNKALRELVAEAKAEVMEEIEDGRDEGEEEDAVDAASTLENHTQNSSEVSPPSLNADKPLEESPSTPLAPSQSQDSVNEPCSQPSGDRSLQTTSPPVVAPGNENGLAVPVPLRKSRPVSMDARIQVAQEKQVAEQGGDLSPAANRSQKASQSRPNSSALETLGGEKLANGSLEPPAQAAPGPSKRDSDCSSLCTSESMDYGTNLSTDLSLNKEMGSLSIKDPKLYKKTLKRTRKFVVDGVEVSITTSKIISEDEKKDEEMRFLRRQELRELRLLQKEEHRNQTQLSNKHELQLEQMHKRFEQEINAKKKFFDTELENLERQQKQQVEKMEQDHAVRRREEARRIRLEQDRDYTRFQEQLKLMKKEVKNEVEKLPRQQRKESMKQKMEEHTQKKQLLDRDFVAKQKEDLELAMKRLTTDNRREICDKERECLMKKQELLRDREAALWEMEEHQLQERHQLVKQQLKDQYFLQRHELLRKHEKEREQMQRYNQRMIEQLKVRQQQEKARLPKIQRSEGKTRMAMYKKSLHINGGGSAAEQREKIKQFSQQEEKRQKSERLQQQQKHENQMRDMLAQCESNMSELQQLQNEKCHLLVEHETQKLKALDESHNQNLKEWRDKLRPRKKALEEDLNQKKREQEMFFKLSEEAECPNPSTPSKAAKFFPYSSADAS
# How it was run: as §1
# [8] = target: T5, PIP5K1C (Homo sapiens, UniProt O60331); conditions: read-out: % control
# T5 construct: purchased KinomeScan® (panel service)
# How it was run: as §1
# [9] = target: MARK3 (Homo sapiens, UniProt P27448); conditions: MARK3, 1 μM; read-out: % control
# MARK3, sequence (P27448 whole entry): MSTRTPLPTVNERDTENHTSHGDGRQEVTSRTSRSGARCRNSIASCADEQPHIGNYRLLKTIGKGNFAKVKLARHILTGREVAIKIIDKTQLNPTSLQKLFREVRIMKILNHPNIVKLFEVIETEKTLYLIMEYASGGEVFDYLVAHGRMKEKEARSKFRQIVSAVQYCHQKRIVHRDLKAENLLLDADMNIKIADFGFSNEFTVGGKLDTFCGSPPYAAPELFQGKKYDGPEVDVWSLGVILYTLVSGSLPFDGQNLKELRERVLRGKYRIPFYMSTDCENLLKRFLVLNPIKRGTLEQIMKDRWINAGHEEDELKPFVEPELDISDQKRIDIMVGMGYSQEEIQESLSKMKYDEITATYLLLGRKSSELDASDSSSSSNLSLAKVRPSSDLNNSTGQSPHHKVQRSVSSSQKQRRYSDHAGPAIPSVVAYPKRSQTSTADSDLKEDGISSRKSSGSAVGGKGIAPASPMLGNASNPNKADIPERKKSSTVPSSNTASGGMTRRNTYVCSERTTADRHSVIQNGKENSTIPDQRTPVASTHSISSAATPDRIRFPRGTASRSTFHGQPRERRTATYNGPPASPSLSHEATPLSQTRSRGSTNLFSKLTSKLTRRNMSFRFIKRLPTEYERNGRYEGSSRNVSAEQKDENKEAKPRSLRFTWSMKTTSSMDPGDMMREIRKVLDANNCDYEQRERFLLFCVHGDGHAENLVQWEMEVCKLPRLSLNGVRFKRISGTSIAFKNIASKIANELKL
# How it was run: as §1
# [10] = target: MARK2 (Homo sapiens, UniProt Q7KZI7); conditions: MARK2, 1 μM; read-out: % control
# How it was run: as §1
# [11] = target: T6, ULK3 (Homo sapiens, UniProt Q6PHR2); conditions: ULK3, 1 μM; read-out: % control
# T6 sequence (Q6PHR2 1-472): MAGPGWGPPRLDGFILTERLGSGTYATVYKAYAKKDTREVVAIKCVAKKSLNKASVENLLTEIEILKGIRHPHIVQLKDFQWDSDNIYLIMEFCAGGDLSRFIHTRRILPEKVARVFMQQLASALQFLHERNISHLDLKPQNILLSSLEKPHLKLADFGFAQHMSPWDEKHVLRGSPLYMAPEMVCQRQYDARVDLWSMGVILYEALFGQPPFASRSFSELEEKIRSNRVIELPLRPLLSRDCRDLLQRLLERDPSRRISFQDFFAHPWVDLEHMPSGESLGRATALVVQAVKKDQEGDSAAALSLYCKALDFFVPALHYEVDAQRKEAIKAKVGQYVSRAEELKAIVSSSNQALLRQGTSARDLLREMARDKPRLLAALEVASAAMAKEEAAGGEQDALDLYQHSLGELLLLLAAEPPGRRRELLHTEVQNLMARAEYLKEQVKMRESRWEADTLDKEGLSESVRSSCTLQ
# How it was run: as §1
# [12] = target: FGFR1 (Homo sapiens, UniProt P11362); conditions: FGFR1, 1 μM; read-out: % control
# FGFR1, sequence (P11362 22-822): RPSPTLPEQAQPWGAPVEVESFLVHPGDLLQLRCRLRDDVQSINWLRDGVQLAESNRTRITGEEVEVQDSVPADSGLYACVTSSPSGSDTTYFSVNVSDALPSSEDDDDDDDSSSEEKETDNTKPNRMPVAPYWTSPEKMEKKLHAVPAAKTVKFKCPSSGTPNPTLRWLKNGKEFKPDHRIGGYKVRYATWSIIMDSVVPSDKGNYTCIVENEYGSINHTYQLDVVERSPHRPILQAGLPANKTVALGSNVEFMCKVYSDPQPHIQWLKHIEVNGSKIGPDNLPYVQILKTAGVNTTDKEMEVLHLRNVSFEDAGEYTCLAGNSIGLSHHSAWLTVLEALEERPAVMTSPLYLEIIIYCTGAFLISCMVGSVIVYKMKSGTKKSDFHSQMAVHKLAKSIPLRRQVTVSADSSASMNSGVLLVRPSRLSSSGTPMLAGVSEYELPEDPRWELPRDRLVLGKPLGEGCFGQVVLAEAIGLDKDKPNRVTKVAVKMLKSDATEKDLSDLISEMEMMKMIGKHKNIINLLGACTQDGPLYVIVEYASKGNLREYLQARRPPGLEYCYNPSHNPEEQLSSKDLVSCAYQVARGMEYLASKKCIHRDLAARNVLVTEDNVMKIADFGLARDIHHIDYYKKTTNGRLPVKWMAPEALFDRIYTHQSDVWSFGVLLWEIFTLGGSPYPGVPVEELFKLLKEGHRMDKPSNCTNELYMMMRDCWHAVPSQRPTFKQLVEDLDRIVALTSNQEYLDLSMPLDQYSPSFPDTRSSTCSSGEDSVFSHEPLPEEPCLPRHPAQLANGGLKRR
# How it was run: as §1
# [13] = target: PDGFRB (Homo sapiens, UniProt P09619); conditions: read-out: % control
# PDGFRB, sequence (P09619 33-1106): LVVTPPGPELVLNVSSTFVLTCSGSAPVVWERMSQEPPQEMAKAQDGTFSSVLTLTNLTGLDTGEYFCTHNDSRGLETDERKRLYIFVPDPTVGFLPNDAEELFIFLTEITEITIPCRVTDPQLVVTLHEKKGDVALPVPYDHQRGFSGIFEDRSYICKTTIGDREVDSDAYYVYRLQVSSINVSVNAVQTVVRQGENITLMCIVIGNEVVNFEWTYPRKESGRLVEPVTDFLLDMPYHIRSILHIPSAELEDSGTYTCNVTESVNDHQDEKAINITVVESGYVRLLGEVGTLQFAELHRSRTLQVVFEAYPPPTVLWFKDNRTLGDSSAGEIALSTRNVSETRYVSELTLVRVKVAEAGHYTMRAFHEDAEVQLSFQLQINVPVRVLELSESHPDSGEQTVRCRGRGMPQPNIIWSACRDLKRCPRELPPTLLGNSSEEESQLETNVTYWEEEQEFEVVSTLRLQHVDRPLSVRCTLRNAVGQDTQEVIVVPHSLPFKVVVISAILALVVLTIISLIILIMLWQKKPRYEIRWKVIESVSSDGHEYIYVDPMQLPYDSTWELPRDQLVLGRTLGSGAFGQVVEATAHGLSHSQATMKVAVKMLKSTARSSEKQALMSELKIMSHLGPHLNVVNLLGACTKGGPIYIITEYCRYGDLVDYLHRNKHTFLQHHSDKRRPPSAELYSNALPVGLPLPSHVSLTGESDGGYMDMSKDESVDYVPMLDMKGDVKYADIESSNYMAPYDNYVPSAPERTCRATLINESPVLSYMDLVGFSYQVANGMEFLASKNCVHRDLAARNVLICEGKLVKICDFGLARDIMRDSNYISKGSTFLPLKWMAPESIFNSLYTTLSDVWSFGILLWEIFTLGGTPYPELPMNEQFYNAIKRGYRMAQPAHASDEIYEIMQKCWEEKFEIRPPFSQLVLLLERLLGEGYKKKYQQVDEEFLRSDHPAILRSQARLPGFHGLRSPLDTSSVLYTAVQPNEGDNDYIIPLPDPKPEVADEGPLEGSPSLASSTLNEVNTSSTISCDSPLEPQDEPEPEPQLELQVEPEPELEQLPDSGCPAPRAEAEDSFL
# How it was run: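 Single-point competition binding screen: 1 μM, DMSO, 468 kinases. Results reported as % control from RLU, normalised to DMSO and positive-control wells. Activity threshold: <35% control.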
Compound,remaining binding at 1 µM [1],remaining binding at 1 µM [2],remaining binding at 1 µM [3],remaining binding at 1 µM [4],remaining binding at 1 µM [5],remaining binding at 1 µM [6],remaining binding at 1 µM [7],remaining binding at 1 µM [8],remaining binding at 1 µM [9],remaining binding at 1 µM [10],remaining binding at 1 µM [11],remaining binding at 1 µM [12],remaining binding at 1 µM [13]
"CNc1c(-c2cnn([C@H]3CCN(C(C)=O)C[C@@H]3F)c2)cnc2[nH]cc(Cl)c12 [Compound 77, 1-((3S,4S)-4-(4-(3-chloro-4-(methylamino)-1H-pyrrolo[2,3-b]pyridin-5-yl)-1H-pyrazol-1-yl)-3-fluoropiperidin-1-yl)ethan-1-one]",35%,17%,9.7%,98%,56%,2.8%,99%,37%,82%,86%,5.5%,87%,20%
"O=C(c1ccc(-c2cnc3[nH]cc(Cl)c3c2NC2CCCC2)cc1)N1CCC(N2CCOCC2)CC1 [Compound 101, (4-(3-chloro-4-(cyclopentylamino)-1H-pyrrolo[2,3-b]pyridin-5-yl)phenyl)(4-morpholinopiperidin-1-yl)methanone]",82%,86%,71%,97%,94%,33%,81%,57%,89%,68%,92%,77%,83%
"CNc1c(-c2ccc(C(=O)N3CCC(N4CCOCC4)CC3)cc2)cnc2[nH]cc(Cl)c12 [Compound 96, (4-(3-chloro-4-(methylamino)-1H-pyrrolo[2,3-b]pyridin-5-yl)phenyl)(4-morpholinopiperidin-1-yl)methanone]",36%,7.3%,27%,100%,22%,4.2%,88%,49%,84%,60%,10%,85%,21%
